Experimental data: patent US8957103B2, “Conjugated 3-(indolyl)- and 3-(azaindolyl)-4-arylmaleimide compounds and their use in tumor treatment” (Johannes Gutenberg—Universitat Mainz, priority 2010, dated 2015)

Tests used:
VEGFR-2 = VEGFR-2 (Homo sapiens (Human), UniProt P35968); assay: VEGFR-2 kinase assay (Millipore IC50Profiler); format: biochemical
Source text: (§1) GSK-3β, VEGFR-2, FLT-3, Kinase Assays
Detailed protocols can be found at: www.millipore.com/drugdiscovery/dd3/assayprotocols.

HT-29 cells = assay: Nicoletti apoptosis assay by cell cycle analysis (sub-G1 fraction); format: cell-based, human; conditions: 7 days
Experimental: Nicoletti Apoptosis Assay by Cell Cycle Analysis
Cancer cells were transferred to 12-well flat-bottomed plates. 1.5×10^5 viable cells contained in 1 ml cell suspension were plated into each well and incubated over night before exposure with various concentrations of drugs. Subsequently, cells were incubated in 1 ml medium containing various concentrations of test compounds at 37° C. with 5% CO2. After incubation the cells were washed with PBS, trypsinized, pelleted and mixed with PI buffer (containing 0.1% sodium citrate, 0.1% triton X-100, […] propidium iodide (PI)) and incubated for 1 hour at 4° C. Cell cycle sub-G1 fraction analysis was performed as described previously (Nicoletti, I. et al. (1991) J. Immunol. Methods 139: 271-279) using a flow cytometer (BD FACS Calibur™, BD Biosciences, Heidelberg, Germany). Each experiment was done in triplicate.
(§2) Working solutions of 26 mM test compound in DMSO were prepared and stored in aliquots at −20° C. A 29.6 mM stock solution of irinotecan in water was prepared and stored in aliquots at 4° C. The drugs were diluted in culture medium immediately before use to obtain the desired concentrations.
(§3) The human colon cancer cell line HT-29 was obtained from the DSMZ, Germany. […] cells were cultured in RPMI 1640 supplemented with 10% FCS at 37° C. and 5% CO2.
Compounds of the invention (test compounds) and the topoisomerase I inhibitor irinotecan were analyzed for their individual and combined effect in apoptosis assay (method described above). Induction of apoptosis was determined by cell cycle analysis (% sub-G1 fraction) after incubating HT-29 cells with test compounds, irinotecan or combinations thereof, respectively, for 7 days.

FLT-3 = FLT-3 (Homo sapiens (Human), UniProt P36888); assay: FLT-3 kinase assay (Millipore IC50Profiler); format: biochemical
Chain of FLT-3 (P36888 27-993): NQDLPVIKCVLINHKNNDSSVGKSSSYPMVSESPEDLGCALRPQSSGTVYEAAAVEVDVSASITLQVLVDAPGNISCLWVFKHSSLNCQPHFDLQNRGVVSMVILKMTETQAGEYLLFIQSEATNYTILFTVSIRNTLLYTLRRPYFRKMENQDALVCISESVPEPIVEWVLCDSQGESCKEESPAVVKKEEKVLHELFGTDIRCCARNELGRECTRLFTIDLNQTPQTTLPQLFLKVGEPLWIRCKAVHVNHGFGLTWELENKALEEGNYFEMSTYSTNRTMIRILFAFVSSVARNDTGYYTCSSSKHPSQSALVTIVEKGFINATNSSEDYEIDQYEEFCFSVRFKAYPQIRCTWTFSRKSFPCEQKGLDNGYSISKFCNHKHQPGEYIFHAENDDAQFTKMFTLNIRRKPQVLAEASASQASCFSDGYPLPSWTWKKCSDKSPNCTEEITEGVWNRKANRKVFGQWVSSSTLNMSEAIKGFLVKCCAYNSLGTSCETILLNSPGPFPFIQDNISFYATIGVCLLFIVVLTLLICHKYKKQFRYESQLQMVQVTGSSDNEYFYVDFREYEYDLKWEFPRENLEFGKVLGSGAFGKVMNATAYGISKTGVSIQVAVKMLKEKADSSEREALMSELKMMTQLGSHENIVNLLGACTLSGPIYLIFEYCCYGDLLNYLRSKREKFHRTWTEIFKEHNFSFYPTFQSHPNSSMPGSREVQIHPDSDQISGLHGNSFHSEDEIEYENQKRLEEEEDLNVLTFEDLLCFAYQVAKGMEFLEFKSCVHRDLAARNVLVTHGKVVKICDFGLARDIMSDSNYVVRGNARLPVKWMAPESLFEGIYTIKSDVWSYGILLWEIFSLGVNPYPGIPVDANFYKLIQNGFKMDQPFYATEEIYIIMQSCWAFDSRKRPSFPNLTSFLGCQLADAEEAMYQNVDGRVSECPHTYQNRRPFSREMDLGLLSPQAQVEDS
Experimental: as §1
(§4) The effect of test compounds on the activity of the protein kinases GSK-3β, VEGFR-2 and FLT-3 was evaluated based on half maximal inhibitory concentration (IC50) values determined by Millipore UK Ltd; Gemini Crescent; Dundee Technology Park; Dundee DD2 1SW; UK (IC50Profiler). Detailed protocols can be found at: www.millipore.com/drugdiscovery/dd3/assayprotocols.
(§5) The inhibitory effect of test compounds on protein kinases VEGFR-2, FLT-3 and GSK-3β was investigated using respective kinase inhibition assays (method described above) and the values of half maximal inhibitory concentration (IC50) were determined from the assay results. […] Thus, compounds with selective kinase profiles were identified, which may allow application specific for a certain tumor or condition while showing less side-effects caused by activity against other kinases.

[1] = In vitro hepatic microsome stability; format: in vitro ADME; conditions: rat liver microsomes in Tris buffer
Experimental: Metabolic conversion was evaluated by incubating compounds of the invention (test compounds) with rat liver microsomes (BD Biosciences) in Tris buffer.

GSK-3β = GSK-3β (Homo sapiens (Human), UniProt P49841); assay: GSK-3β kinase assay (Millipore IC50Profiler); format: biochemical
Chain of GSK-3β (P49841 whole entry): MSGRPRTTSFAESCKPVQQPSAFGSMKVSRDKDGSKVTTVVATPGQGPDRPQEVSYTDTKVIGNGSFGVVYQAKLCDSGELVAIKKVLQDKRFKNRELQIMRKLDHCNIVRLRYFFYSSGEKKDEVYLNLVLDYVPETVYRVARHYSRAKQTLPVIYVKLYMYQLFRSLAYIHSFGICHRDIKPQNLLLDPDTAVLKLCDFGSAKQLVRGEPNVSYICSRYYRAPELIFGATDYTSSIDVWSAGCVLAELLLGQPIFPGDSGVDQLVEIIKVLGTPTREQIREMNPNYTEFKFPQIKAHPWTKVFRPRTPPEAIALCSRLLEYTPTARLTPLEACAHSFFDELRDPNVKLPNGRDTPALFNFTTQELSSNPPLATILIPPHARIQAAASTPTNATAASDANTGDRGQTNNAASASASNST
Experimental: as §1, §4, §5

[2] = system: HT-29 human colon adenocarcinoma cells; assay: MTT assay, antiproliferative effect; format: cell-based; conditions: HT-29, 72 h, 3 days, read-out: Viability of HT-29 cells as determined by MTT assay
Experimental: Evaluation of Antiproliferative Effect (MTT Assay)
The antiproliferative activity of test compounds was determined by the 3-(4,5-dimethylthiazol-2-yl)-2,5-diphenyltetrazolium bromide (MTT) assay as described previously (Mosmann, T. et al. (1983) J. Immunol. Methods 65: 55-63). Cells in the exponential growth phase were transferred to 96-well flat-bottomed plates. 10,000 viable cells contained in 200 μl cell suspension were plated into each well and incubated over night. Cells were then exposed to various concentrations of test compounds (100 μl/well) for 3 days at 37° C. with 5% CO2. Subsequently, 10 μl/well MTT stock solution (5 mg/ml; Biomol, Germany) were added and the cells were incubated at 37° C. with 5% CO2 for 4 hours. 100 μl solubilization solution (10% SDS in 0.01 M HCl) were added and the cells were incubated at 37° C. with 5% CO2 over night. Plates were read on an ELISA-Reader ELX 800 (BIO-TEK Software KC 4) at 562 nm absorbance. Each experiment was done in triplicate.
as §2, §3
The antitumor activity of test compounds was examined against HT-29 human colon adenocarcinoma cells using MTT assay (method described above).

[3] = 8 μM test compound plus 1.18 μM irinotecan

Chain of VEGFR-2 (P35968 20-1356): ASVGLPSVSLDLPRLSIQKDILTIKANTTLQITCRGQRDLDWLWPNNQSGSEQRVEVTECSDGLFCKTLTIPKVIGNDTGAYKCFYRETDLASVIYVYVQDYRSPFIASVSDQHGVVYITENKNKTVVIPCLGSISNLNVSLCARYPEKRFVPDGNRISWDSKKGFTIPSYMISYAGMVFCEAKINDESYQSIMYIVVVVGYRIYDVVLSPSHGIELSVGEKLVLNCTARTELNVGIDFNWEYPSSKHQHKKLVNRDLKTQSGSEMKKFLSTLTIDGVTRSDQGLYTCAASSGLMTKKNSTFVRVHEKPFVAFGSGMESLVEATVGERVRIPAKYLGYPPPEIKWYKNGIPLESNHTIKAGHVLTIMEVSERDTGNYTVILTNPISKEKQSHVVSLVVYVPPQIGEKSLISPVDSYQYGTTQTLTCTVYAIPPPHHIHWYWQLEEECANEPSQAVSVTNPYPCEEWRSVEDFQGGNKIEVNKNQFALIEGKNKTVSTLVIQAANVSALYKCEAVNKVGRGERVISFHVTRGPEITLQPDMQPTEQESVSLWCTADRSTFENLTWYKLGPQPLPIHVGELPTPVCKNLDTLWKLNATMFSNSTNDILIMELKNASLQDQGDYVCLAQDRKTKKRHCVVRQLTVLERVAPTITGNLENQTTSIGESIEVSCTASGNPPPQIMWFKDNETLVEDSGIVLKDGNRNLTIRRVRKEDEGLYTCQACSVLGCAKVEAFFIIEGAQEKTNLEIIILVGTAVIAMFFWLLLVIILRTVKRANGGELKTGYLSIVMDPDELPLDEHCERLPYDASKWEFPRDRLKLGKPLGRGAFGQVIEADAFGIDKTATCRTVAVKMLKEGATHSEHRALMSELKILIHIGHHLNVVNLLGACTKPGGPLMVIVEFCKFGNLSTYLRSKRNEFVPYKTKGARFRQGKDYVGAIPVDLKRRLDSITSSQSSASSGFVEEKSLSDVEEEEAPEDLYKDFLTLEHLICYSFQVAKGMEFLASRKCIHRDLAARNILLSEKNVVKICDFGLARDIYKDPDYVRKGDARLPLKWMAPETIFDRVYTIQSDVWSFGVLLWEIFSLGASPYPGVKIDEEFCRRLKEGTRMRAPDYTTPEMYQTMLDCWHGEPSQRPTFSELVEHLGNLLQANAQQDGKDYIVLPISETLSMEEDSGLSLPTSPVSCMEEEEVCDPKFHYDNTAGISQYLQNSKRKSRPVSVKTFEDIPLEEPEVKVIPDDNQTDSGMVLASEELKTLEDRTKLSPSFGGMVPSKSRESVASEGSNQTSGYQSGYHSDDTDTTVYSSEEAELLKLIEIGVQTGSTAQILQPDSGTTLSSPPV

COc1cc(C2=C(c3cn(CCOC(=O)C(N)CC(C)C)c4ccccc34)C(=O)NC2=O)cc(OC)c1OC (stereo not shown) [Compound D, 2-(3-(2,5-Dioxo-4-(3,4,5-trimethoxyphenyl)-2,5-dihydro-1H-pyrrol-3-yl)-1H-indol-1-yl)ethyl 2-amino-4-methylpentanoate]
IC50 (VEGFR-2): 251 nM
Sub-G1 Fraction (HT-29 cells; 8 μM test compound only): 6.2 ± 0.8%
Sub-G1 Fraction (HT-29 cells; [3]): 44.5 ± 1.5%
IC50 (FLT-3): 239 nM
Metabolic conversion (degradation, metabolite formed) [1]: yield metabolite D1
IC50 (GSK-3β): 12 nM
viability at 1 µM [2]: 104 ± 6.4%
viability at 10 µM [2]: 99.4 ± 8.3%
viability at 20 µM [2]: 94.5 ± 8.3%
viability at 50 µM [2]: 65.3 ± 3.3%

CCc1c2c(nc3ccc(OC(=O)N4CCC(N5CCCCC5)CC4)cc13)-c1cc3c(c(=O)n1C2)COC(=O)[C@]3(O)CC [irinotecan, reference compound]
Sub-G1 Fraction (HT-29 cells; 1.18 μM irinotecan only): 26.1 ± 2.1%

COc1cc(C2=C(c3cn(CCCNC(=O)C(N)CC(C)C)c4ccccc34)C(=O)NC2=O)cc(OC)c1OC (stereo not shown) [Compound A, 2-Amino-N-(3-(3-(2,5-dioxo-4-(3,4,5-trimethoxyphenyl)-2,5-dihydro-1H-pyrrol-3-yl)-1H-indol-1-yl)propyl)-4-methylpentanamide]
IC50 (VEGFR-2): ≥ 1000 nM
Sub-G1 Fraction (HT-29 cells; 8 μM test compound only): 7.4 ± 0.5%
Sub-G1 Fraction (HT-29 cells; [3]): 38.9 ± 2.8%
IC50 (FLT-3): ≥ 1000 nM
IC50 (GSK-3β): 208 nM
viability at 1 µM [2]: 94.9 ± 4.6%
viability at 10 µM [2]: 68.7 ± 0.9%
viability at 20 µM [2]: 59.2 ± 5.4%
viability at 50 µM [2]: 26 ± 8.9%

COc1cc(C2=C(c3cn(CCCO)c4ccccc34)C(=O)NC2=O)cc(OC)c1OC [Compound D1, 3-(1-(3-hydroxypropyl)indol-3-yl)-4-(3,4,5-trimethoxyphenyl)-1H-pyrrole-2,5-dione]
Metabolic conversion (degradation, metabolite formed) [1]: upon further degradation gave compound Z1

COc1cc(C2=C(c3c[nH]c4ccccc34)C(=O)NC2=O)cc(OC)c1OC [Compound Z1, 3-(1-H-indol-3-yl)-4-(3,4,5-trimethoxyphenyl)-1H-pyrrole-2,5-dione]
IC50 (VEGFR-2): 90 nM
IC50 (FLT-3): 270 nM
Metabolic conversion (degradation, metabolite formed) [1]: metabolized to form metabolite Z2
IC50 (GSK-3β): > 1000 nM

COc1cc(C2=C(c3cn(CCCOC(=O)C(N)CC(C)C)c4ccccc34)C(=O)NC2=O)cc(OC)c1OC (stereo not shown) [Compound C, 3-(3-(2,5-Dioxo-4-(3,4,5-trimethoxyphenyl)-2,5-dihydro-1H-pyrrol-3-yl)-1H-indol-1-yl)propyl 2-amino-4-methylpentanoate]
IC50 (VEGFR-2): ≥ 1000 nM
Sub-G1 Fraction (HT-29 cells; 8 μM test compound only): 6.6 ± 0.4%
Sub-G1 Fraction (HT-29 cells; [3]): 39.2 ± 0.7%
IC50 (FLT-3): 480 nM
Metabolic conversion (degradation, metabolite formed) [1]: time dependent degradation
IC50 (GSK-3β): 134 nM
viability at 1 µM [2]: 96.7 ± 3.3%
viability at 10 µM [2]: 49.3 ± 1.1%
viability at 20 µM [2]: 51 ± 2.3%

COc1cc(C2=C(c3cn(CCCO)c4ccccc34)C(=O)NC2=O)cc(OC)c1OC [Compound C1, 3-(1-(3-hydroxypropyl)indol-3-yl)-4-(3,4,5-trimethoxyphenyl)-1H-pyrrole-2,5-dione]
IC50 (FLT-3): 556 nM
Metabolic conversion (degradation, metabolite formed) [1]: gave its metabolite Z1
IC50 (GSK-3β): 2250 nM
